From patent US20260152503A1, “SPIROBICYCLIC COMPOUNDS” (ACERAND THERAPEUTICS (HONG KONG) LIMITED, priority 2022, published 2026)

Legend:
Type in all cases: cell-based
FGFR1 = target: T1, FGFR1 (Homo sapiens, UniProt P11362); assay: pERK potency assay (In Cell ELISA), DMS114 cells; settings: DMS114 (FGFR1 amplification) cells, 3 hours
T1 construct: DMS114 (FGFR1 amplification); host or cells: DMS114
Text: (§1) The purpose of this assay is to measure the ability of test compounds to inhibit FGFR mediated downstream signaling cascades, i.e., ERK phosphorylation in cells with FGFR aberrations. FGFR aberrations become constitutively active and thus induces cascades of cellular signaling events that result in increased phosphorylation of ERK at Threonine 202 and Tyrosine 204 (pERK). The procedure called In Cell ELISA described below measures the level of cellular pERK in response to FGFR specific inhibitor compounds in FGFR aberrations of AN3CA (FGFR2/k310R, N549K), DMS114 (FGFR1 amplification), RT112 (FGFR3 overexpression/FGFR3-TACC3 fusion) and Hep3B (FGF19 amplification) cells. AN3CA, DMS114 and Hep3B cells are from ATCC. RT112 cells are from Sigma. DMS114 cells are grown and maintained using RPMI-1640 medium supplemented with 10% heat-inactivated fetal bovine serum. AN3CA, Hep3B and RT112 cells are grown and maintained using DMEM supplemented with 10% heat-inactivated fetal bovine serum. On the day before test compound addition, cells are plated in poly-D-lysine coated 96-well cell culture plates (Corning® BioCoat® Cat #356640) at 40000 cells/well/100 μL and grown overnight in a 37° C., 5% CO2 incubator. Test compounds are prepared with 4-fold serial dilutions in DMSO, with a top concentration of 10 μM. On the day of the assay, 50 μL of test compound diluted in media was added to each well of cell culture plate with the final concentration of compounds spanning from 0.000038 μM to 10 μM. After compound addition, cells are incubated for 3 hours at 37° C., 5% CO2 and then the culture medium is removed. Cells are fixed with 4% formaldehyde in phosphate-buffered saline (PBS) and incubated at RT for 20 min. The plate is then washed three times with PBST (PBS with 0.05% tween-20), followed by the incubation with 100 μL of pre-cooled methanol at −20° C. for 20 min. After incubation, methanol is removed, and the plate is washed once with PBST. Cells are permeabilized with 100 µL/well of 0.1% Triton X-100 in PBS at RT for 20 min and then quenched with quenching buffer (PBST containing 1% H2O2 and 0.1% sodium azide) for 20 min at RT with gentle shaking. After washing once with PBST, blocking buffer (250 ul/well, Pierce™ Protein-Free-PBS Blocking Buffer, Cat #37572) was then added to the cells for 1-h incubation at RT, followed by anti-pERK antibody (cell signaling, 1:1000 dilution in 5% BSA in PBST) incubation overnight at 4° C. and secondary antibody-HRP (Jackson immunoresearch, 1:3000 dilution in 5% BSA in PBST) incubation at RT for 1 h. PBST wash is carried out after each step three times. Before the addition of the substrate (Advansta ELISABright), the plate is washed with PBS twice to remove detergent residues. Cellular pERK level is determined using the microplate reader (Biotek Synergy H1) to detect the chemiluminescence signal. IC50 is determined by fitting a 4-parameter sigmoidal concentration-response model. FGFR wild type cells (H1975, PC-9 and AGS) are used to serve as negative control (FGFR selectivity) with the same assay procedures described above.

FGFR2 = target: T2, FGFR2 (Homo sapiens, UniProt P21802, K310R/N549K); assay: pERK potency assay (In Cell ELISA), AN3CA cells; settings: for IC50: pERK, AN3CA (FGFR2/k310R, N549K) cells, 3 hours; for FGFR1 IC50/FGFR2 IC50 / FGFR3 IC50/FGFR2 IC50: selectivity ratio, pERK potency; for FGFR1 IC50/FGFR2 IC50: FGFR2 relative to FGFR1; for FGFR3 IC50/FGFR2 IC50: FGFR2 relative to FGFR3
T2 construct: in FGFR aberrations of AN3CA (FGFR2/k310R, N549K); host or cells: AN3CA
T2 sequence (P21802 22-821 K310R/N549K): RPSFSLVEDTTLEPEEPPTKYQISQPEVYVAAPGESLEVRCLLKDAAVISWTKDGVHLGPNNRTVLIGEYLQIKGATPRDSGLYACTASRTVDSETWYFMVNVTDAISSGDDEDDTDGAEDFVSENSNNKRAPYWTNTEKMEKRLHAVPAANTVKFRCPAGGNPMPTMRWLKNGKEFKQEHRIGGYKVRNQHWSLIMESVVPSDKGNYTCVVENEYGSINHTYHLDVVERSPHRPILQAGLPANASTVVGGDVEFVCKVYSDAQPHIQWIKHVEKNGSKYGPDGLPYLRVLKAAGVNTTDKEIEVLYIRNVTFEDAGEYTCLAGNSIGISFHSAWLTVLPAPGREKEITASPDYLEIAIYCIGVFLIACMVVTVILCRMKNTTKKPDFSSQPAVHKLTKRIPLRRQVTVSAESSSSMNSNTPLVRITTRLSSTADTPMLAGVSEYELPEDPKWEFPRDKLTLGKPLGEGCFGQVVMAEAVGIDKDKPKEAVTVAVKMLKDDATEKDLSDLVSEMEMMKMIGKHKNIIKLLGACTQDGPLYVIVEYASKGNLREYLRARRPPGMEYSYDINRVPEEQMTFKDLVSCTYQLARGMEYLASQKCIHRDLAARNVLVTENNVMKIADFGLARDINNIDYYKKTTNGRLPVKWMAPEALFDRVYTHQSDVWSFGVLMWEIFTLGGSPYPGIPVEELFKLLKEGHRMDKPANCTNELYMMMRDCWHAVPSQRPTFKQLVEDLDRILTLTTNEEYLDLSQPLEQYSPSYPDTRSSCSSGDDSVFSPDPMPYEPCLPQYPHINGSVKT
Text: as §1

FGFR3 = target: T3, FGFR3 (Homo sapiens, UniProt P22607); assay: pERK potency assay (In Cell ELISA), RT112 cells; settings: RT112 (FGFR3 overexpression/FGFR3-TACC3 fusion) cells, 3 hours
T3 construct: RT112 (FGFR3 overexpression/FGFR3-TACC3 fusion); host or cells: RT112; the other entry of the earlier key: TACC3 (Q9Y6A5, Transforming acidic coiled-coil-containing protein 3)
Text: as §1

T1 sequence (P11362 22-822): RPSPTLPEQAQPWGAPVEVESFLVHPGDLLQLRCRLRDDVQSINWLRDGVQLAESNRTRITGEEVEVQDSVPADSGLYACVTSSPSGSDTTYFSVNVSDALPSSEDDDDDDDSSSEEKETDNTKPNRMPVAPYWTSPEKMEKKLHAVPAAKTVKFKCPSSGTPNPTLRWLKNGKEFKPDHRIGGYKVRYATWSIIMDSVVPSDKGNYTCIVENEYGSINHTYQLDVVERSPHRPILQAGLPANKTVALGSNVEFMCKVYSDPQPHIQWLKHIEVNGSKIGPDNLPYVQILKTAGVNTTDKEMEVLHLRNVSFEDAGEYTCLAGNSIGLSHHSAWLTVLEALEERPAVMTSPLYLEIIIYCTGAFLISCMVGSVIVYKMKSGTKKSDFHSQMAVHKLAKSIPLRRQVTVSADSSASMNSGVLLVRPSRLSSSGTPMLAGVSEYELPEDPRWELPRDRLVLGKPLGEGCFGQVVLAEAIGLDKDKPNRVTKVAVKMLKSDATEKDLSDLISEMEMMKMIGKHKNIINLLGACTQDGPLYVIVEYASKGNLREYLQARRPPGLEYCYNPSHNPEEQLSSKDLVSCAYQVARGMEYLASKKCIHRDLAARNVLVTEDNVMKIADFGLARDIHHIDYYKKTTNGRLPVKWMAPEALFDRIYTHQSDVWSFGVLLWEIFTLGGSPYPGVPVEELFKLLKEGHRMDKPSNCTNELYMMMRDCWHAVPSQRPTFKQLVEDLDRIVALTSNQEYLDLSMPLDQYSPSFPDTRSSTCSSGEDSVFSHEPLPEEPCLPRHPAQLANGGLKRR

Row | SMILES | IC50 (FGFR1) [µM] | IC50 (FGFR2) [µM] | FGFR1 IC50/FGFR2 IC50 (FGFR2) | FGFR3 IC50/FGFR2 IC50 (FGFR2) | IC50 (FGFR3) [µM]
1 | C=CC(=O)N1CCC2(CC=C(c3c(-c4nccc(C)n4)c4c(N)ncnc4n3C)CC2)CC1 [Example 35, 1-(9-(4-amino-7-methyl-5-(4-methylpyrimidin-2-yl)-7H-pyrrolo[2,3-d]pyrimidin-6-yl)-3-azaspiro[5.5]undec-8-en-3-yl)prop-2-en-1-one] | > 0.1 | 0.01 to 0.03 | F (a selectivity ratio greater than 50 but less than or equal to 150) | G (a selectivity ratio greater than 150 but less than or equal to 500) | > 0.1
2 | C=CC(=O)N1CCC2(CC=C(c3c(-c4ccc(OC5CC5)cc4)c4c(N)ncnc4n3C(F)F)CC2)CC1 [Example 36, 1-(9-(4-amino-5-(4-cyclopropoxyphenyl)-7-(difluoromethyl)-7H-pyrrolo[2,3-d]pyrimidin-6-yl)-3-azaspiro[5.5]undec-8-en-3-yl)prop-2-en-1-one] | 0.03 to 0.1 | 0.001 to 0.01 | F (a selectivity ratio greater than 50 but less than or equal to 150) | G (a selectivity ratio greater than 150 but less than or equal to 500) | > 0.1
3 | C=CC(=O)N1CCC2(CC=C(c3c(-c4ccc(C#N)nc4)c4c(N)ncnc4n3C(F)F)CC2)CC1 [Example 37, 5-(6-(3-acryloyl-3-azaspiro[5.5]undec-8-en-9-yl)-4-amino-7-(difluoromethyl)-7H-pyrrolo[2,3-d]pyrimidin-5-yl)picolinonitrile] | > 0.1 | 0.01 to 0.03 | G (a selectivity ratio greater than 150 but less than or equal to 500) | G (a selectivity ratio greater than 150 but less than or equal to 500) | > 0.1
4 | [2H]C([2H])([2H])Oc1ccc(-c2c(C3=C(F)CC4(CC3)CCN(C(=O)C=C)CC4)n(C)c3ncnc(N)c23)cc1 [Example 38, 1-(9-(4-amino-5-(4-(methoxy-d3)phenyl)-7-methyl-7H-pyrrolo[2,3-d]pyrimidin-6-yl)-8-fluoro-3-azaspiro[5.5]undec-8-en-3-yl)prop-2-en-1-one] | 0.03 to 0.1 | ≤ 0.001 | F (a selectivity ratio greater than 50 but less than or equal to 150) | F (a selectivity ratio greater than 50 but less than or equal to 150) | 0.03 to 0.1
5 | C=CC(=O)N1CCC2(CC=C(c3c(-c4ccc(OC)nc4)c4c(N)ncnc4n3C)CC2)CC1(C)C (stereo not shown) [Example 40, 1-(9-(4-amino-5-(6-methoxypyridin-3-yl)-7-methyl-7H-pyrrolo[2,3-d]pyrimidin-6-yl)-2,2-dimethyl-3-azaspiro[5.5]undec-8-en-3-yl)prop-2-en-1-one] | > 0.1 | 0.001 to 0.01 | G (a selectivity ratio greater than 150 but less than or equal to 500) | I (a selectivity ratio greater than 1000 but less than or equal to 2000) | > 0.1
6 | C=CC(=O)N1CCC2(CC=C(c3c(-c4ccc(F)cc4)c4c(N)ncnc4n3C)CO2)CC1 [Example 41, 1-(3-(4-amino-5-(4-fluorophenyl)-7-methyl-7H-pyrrolo[2,3-d]pyrimidin-6-yl)-1-oxa-9-azaspiro[5.5]undec-3-en-9-yl)prop-2-en-1-one] | > 0.1 | 0.001 to 0.01 | H (a selectivity ratio greater than 500 but less than or equal to 1000) | H (a selectivity ratio greater than 500 but less than or equal to 1000) | > 0.1
7 | C=CC(=O)N1CCC2(CC=C(c3c(-c4ncc(OC5COC5)cn4)c4c(N)ncnc4n3C)CC2)CC1 [Example 46, 1-(9-(4-amino-7-methyl-5-(5-(oxetan-3-yloxy)pyrimidin-2-yl)-7H-pyrrolo[2,3-d]pyrimidin-6-yl)-3-azaspiro[5.5]undec-8-en-3-yl)prop-2-en-1-one] | > 0.1 | 0.001 to 0.01 | H (a selectivity ratio greater than 500 but less than or equal to 1000) | J (a selectivity ratio greater than 2000) | > 0.1
8 | C=CC(=O)N1CCC2(CC=C(c3c(-c4ncc5c(n4)CCO5)c4c(N)ncnc4n3C)CC2)CC1 [Example 48, 1-(9-(4-amino-5-(6,7-dihydrofuro[3,2-d]pyrimidin-2-yl)-7-methyl-7H-pyrrolo[2,3-d]pyrimidin-6-yl)-3-azaspiro[5.5]undec-8-en-3-yl)prop-2-en-1-one] | > 0.1 | 0.001 to 0.01 | H (a selectivity ratio greater than 500 but less than or equal to 1000) | J (a selectivity ratio greater than 2000) | > 0.1
9 | C=CC(=O)N1CCC2(CC=C(c3c(-c4ncccc4F)c4c(N)ncnc4n3C)CC2)CC1 [Example 49, 1-(9-(4-amino-5-(3-fluoropyridin-2-yl)-7-methyl-7H-pyrrolo[2,3-d]pyrimidin-6-yl)-3-azaspiro[5.5]undec-8-en-3-yl)prop-2-en-1-one] | > 0.1 | 0.03 to 0.1 | G (a selectivity ratio greater than 150 but less than or equal to 500) | G (a selectivity ratio greater than 150 but less than or equal to 500) | > 0.1
10 | C=CC(=O)N1CCC2(CC=C(c3c(-c4ncco4)c4c(N)ncnc4n3C)CC2)CC1 [Example 53, 1-(9-(4-amino-7-methyl-5-(oxazol-2-yl)-7H-pyrrolo[2,3-d]pyrimidin-6-yl)-3-azaspiro[5.5]undec-8-en-3-yl)prop-2-en-1-one] | > 0.1 | > 0.1 | – | – | > 0.1
11 | C=CC(=O)N1CCC2(CC=C(c3c(-c4ncccn4)c4c(N)ncnc4n3CCO)CC2)CC1 [Example 54, 1-(9-(4-amino-7-(2-hydroxyethyl)-5-(pyrimidin-2-yl)-7H-pyrrolo[2,3-d]pyrimidin-6-yl)-3-azaspiro[5.5]undec-8-en-3-yl)prop-2-en-1-one] | > 0.1 | 0.001 to 0.01 | F (a selectivity ratio greater than 50 but less than or equal to 150) | G (a selectivity ratio greater than 150 but less than or equal to 500) | > 0.1
12 | C=CC(=O)N1CCC2(CC=C(c3c(C4COC4)c4c(N)ncnc4n3C)CC2)CC1 [Example 55, 1-(9-(4-amino-7-methyl-5-(oxetan-3-yl)-7H-pyrrolo[2,3-d]pyrimidin-6-yl)-3-azaspiro[5.5]undec-8-en-3-yl)prop-2-en-1-one] | 0.01 to 0.03 | ≤ 0.001 | – | F (a selectivity ratio greater than 50 but less than or equal to 150) | 0.03 to 0.1
13 | C=CC(=O)N1CCC2(CC=C(c3c(-c4ccncn4)c4c(N)ncnc4n3C)CC2)CC1 [Example 60, 1-(9-(4-amino-7-methyl-5-(pyrimidin-4-yl)-7H-pyrrolo[2,3-d]pyrimidin-6-yl)-3-azaspiro[5.5]undec-8-en-3-yl)prop-2-en-1-one] | > 0.1 | 0.01 to 0.03 | – | F (a selectivity ratio greater than 50 but less than or equal to 150) | > 0.1
